Laboratory results published in patent US4713384A, “Selective method for blocking 5HT2 receptors” (Eli Lilly and Company, priority 1985, dated 1987).

Legend:
5HT2 receptors [1] = target: T1, 5HT2 receptors (Rattus norvegicus, UniProt P14842); test: antagonism of serotonin contraction in rat external jugular vein (5HT2, apparent dissociation constant); format: biochemical, rat (male Wistar); design: their external jugular veins and thoracic aortas dissected free of connective tissue; from tissue; host or cells: external jugular vein of male Wistar rats; settings: antagonist incubated one hour, 37° C., read-out: -log KB (Log Kb ± S.E.), 5HT2 receptors (converted)
Experimental: Compounds according to formula I have an extremely high affinity for 5HT2 receptors, with a much lower affinity for alpha receptors. Ratios of relative dissociation constants for interaction with alpha to 5HT2 receptors are of the order of 200,000-300,000 indicating dramatic selectivity for 5HT2 receptors. The apparent dissociation constants (KB) are a measure of affinity for 5HT2 and alpha receptors and are expressed as the negative logarithm and are determined according to the following protocol.
(§1) An initial optimum resting force of 1 and 4 g was applied to the jugular vein and aorta, respectively. […] Exp. Ther., 205, 400 (1978) and Cohen, Colbert and Wittenauer, Drug Dev. Res., 5 513 (1985) for descriptions of the procedures employed. Alpha receptor antagonist activity was evaluated in the aorta (α1) or guinea pig ileum (α2).
(§2) The -log KB values obtained for 4-hydroxycyclohexyl 1-isopropyl-9,10-dihydrolysergate, isomer mixture (racemate) and pure isomers (cis and trans referring to stereochemistry of the hydroxycyclohexyl group) plus standard error against 5HT2 receptors are given below in Table 1.

α2 receptors = target: T2, α2 receptors (Cavia porcellus, UniProt Q60474); test: alpha2 antagonism in guinea pig ileum; format: biochemical
T2 construct: Alpha receptor antagonist activity was evaluated in the aorta (α1) or guinea pig ileum (α2); from tissue; host or cells: guinea pig ileum
T2 sequence (Q60474 1-464): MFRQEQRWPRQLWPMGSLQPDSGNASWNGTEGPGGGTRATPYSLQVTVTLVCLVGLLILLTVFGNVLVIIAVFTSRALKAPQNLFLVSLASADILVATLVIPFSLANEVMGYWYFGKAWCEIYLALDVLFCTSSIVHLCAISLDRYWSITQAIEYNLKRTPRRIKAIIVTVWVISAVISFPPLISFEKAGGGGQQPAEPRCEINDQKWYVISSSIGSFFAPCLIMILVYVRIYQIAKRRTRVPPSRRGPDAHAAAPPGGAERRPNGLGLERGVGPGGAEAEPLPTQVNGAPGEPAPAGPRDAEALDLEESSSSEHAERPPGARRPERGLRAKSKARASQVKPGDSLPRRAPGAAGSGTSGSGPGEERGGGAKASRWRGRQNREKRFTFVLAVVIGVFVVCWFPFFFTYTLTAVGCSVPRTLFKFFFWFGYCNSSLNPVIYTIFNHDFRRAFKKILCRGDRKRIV
Experimental: as §1, §2
(§3) The in vitro rat aorta preparation described above was used for α1 -receptors and the guinea pig ileum for α2 -receptors. ED50 (median effective dose) for norepinephrine was determined in the presence of a 10-5 molar dose of the test compound and this ED50 compared to a control ED50.

α1 receptors = target: T3, α1 receptors (Rattus norvegicus, UniProt P23944); test: alpha1 antagonism in rat aorta (norepinephrine); format: biochemical
T3 construct: their external jugular veins and thoracic aortas dissected free of connective tissue; from tissue; host or cells: thoracic aorta of male Wistar rats
T3 sequence (P23944 1-561): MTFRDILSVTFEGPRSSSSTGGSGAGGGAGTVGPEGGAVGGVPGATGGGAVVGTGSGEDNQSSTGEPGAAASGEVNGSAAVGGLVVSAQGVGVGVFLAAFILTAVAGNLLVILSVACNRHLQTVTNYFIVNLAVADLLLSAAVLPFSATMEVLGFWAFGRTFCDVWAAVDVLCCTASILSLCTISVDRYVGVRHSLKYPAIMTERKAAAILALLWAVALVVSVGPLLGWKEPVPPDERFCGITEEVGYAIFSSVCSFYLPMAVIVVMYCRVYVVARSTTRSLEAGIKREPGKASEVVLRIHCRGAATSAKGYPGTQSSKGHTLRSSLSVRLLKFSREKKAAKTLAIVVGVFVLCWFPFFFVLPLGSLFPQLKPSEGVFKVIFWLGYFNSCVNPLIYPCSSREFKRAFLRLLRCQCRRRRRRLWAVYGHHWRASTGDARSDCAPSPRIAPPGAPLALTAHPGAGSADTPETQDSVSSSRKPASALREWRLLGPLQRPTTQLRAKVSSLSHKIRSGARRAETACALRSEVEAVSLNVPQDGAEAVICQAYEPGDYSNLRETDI
Experimental: as §1, §2, §3

5HT2 receptors [2] = test: pressor response to serotonin in pithed SHR after oral treatment; format: in vivo, spontaneously hypertensive rats (SHR); settings: for Curve Shift Relative to trans: pithed SHR
Experimental: (§4) SHR were anesthesized with halothane, femoral arterial and venous catheters were implanted as before and the trachea was cannulated. Each rat was pithed by passing a steel rod through the right orbit and down the entire length of the spinal column. The steel rod remained in place for the duration of the experiment. Immediately after pithing, the rats were ventilated with room air. An equilibration period of 15 minutes was observed prior to control measurements and administration of drugs or vehicle p.o. Increasing doses of serotonin or the alpha2 agonist clonidine were injected i.v. one or six hours after oral treatment with the […]. The response was recorded and the blood pressure allowed to recover to control levels after serotonin. Cumulative dose-response curves to clonidine were determined. The test drug solution was prepared fresh daily. Tables 5 and 6 give the results of these determinations at a dose level of 0.1 mg/kg.
^a Conscious spontaneously hypertensive rats (SHR) were treated orall
1 hour before anesthesia, pithing and determination of pressordose
response curves to multiple doses of 5HT iv (n= 4-10/group).
^b Dose of 5HT required to increase mean arterial blood pressure by 5
6 hours before anesthesia, pithing and determination of pressordose
response curves to multiple doses of 5HT iv (n = 4-10/group).

5HT1 receptors = test: Rat Cortical Membrane Binding, 5HT1; settings: rat cortical membranes; read-out: Rat Cortical Membrane Binding IC50, 5HT
Histamine = target: T4, Histamine (Cavia porcellus, UniProt P31389); test: histamine contraction in guinea pig trachea; format: biochemical
T4 construct: histamine or carbamyl choline (muscarinic) contraction in guinea pig trachea; from tissue; host or cells: guinea pig trachea
Description: (§5) The compounds of this invention also lack demonstrable effects against histamine or carbamyl choline (muscarinic) contraction in guinea pig trachea, using standard procedures.

Muscarinic = target: T5, Muscarinic (Cavia porcellus, UniProt H0W1Z3); test: carbamyl choline (muscarinic) contraction in guinea pig trachea; format: biochemical
T5 construct: histamine or carbamyl choline (muscarinic) contraction in guinea pig trachea; from tissue; host or cells: guinea pig trachea
Description: as §5

[3] = blood pressure and heart rate in spontaneously hypertensive rats; format: in vivo; settings: SHR, oral, 10 mg/kg
alpha2 receptors = test: alpha2 antagonism (clonidine pressor response) in pithed SHR after oral treatment; format: in vivo, spontaneously hypertensive rats (SHR)
Experimental: as §4, with “Tables 5 and 6 give the results of these determinations at a dose level of 0.1 mg/kg.” left out

5HT2 receptors [4] = target: T1, 5HT2 receptors; test: biochemical
Description: The procedures employed are those set forth in Cohen, Colbert and Wittenauer (loc. cit.) for other tissues.

migraine [5] = settings: clinical trial, Lance I, Table 1; cited from earlier work
[6] = tested on: receptors other than 5HT2 receptors, particularly peripheral alpha2 receptors; settings: cited from earlier work
[7] = tested on: vascular alpha adrenergic receptors; settings: Cohen I; cited from earlier work
[8] = tested on: vascular dopaminergic receptors; settings: Cohen I; cited from earlier work
[9] = tested on: vascular histaminergic receptors; settings: Cohen I; cited from earlier work
5HT2 receptors [10] = settings: Cohen I; cited from earlier work
migraine [11] = settings: Sulman; cited from earlier work
dopaminergic = settings: literature; cited from earlier work
5HT receptor = settings: cited from earlier work; for 5HT receptor activity (agonist/antagonist) in words: literature
[12] = Berde; cited from earlier work
cranial arteries = settings: with noradrenaline, migraine attack, Aellig; cited from earlier work
alpha-receptors = settings: literature; cited from earlier work
5HT2 = settings: Awouters; cited from earlier work
[13] = literature; cited from earlier work

T1 sequence (P14842 whole entry): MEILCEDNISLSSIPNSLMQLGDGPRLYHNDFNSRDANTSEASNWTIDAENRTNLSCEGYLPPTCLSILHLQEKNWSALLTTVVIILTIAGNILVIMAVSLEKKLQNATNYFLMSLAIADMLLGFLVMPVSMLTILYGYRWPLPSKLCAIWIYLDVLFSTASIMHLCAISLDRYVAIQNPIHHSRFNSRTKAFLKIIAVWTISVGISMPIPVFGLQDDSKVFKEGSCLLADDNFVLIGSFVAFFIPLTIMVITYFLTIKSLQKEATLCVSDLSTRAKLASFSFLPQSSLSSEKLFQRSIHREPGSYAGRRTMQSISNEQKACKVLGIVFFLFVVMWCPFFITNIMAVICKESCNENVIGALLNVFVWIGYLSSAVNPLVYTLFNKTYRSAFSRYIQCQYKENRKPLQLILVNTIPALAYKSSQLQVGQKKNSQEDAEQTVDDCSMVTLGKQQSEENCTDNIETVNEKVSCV
T5 sequence (H0W1Z3 1-590): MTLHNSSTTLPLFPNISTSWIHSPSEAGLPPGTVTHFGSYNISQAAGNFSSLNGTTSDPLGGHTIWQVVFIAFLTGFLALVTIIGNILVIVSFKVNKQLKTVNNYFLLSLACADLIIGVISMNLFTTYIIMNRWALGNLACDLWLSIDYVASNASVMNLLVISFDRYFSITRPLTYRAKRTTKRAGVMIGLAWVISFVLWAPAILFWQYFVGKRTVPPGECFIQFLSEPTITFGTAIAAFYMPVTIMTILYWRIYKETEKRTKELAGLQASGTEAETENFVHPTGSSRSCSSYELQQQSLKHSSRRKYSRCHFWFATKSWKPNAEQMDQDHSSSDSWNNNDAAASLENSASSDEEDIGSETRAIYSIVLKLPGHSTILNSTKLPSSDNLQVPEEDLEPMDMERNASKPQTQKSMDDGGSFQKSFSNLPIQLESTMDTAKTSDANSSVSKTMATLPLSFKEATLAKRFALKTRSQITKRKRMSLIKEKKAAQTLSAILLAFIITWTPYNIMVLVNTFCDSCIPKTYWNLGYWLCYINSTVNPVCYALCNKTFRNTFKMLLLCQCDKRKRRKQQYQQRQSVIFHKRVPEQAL
T4 sequence (P31389 whole entry): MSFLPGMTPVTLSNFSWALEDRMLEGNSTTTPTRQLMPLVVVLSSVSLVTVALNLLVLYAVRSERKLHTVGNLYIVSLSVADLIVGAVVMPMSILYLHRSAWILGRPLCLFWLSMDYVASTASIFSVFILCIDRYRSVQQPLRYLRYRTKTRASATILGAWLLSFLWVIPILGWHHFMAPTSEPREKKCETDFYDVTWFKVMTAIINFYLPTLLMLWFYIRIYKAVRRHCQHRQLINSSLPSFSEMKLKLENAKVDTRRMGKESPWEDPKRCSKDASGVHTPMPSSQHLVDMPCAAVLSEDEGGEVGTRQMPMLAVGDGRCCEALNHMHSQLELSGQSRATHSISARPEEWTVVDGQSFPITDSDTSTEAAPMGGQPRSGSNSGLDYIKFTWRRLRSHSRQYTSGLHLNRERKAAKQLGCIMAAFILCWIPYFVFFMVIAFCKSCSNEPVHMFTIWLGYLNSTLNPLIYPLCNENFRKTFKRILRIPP

## CC(C)n1cc2c3c(cccc31)[C@H]1C[C@@H](C(=O)O[C@H]3CC[C@@H](O)CC3)CN(C)[C@@H]1C2 (mixture of isomers) [cis, cis-(±)-4-hydroxycyclohexyl 1-isopropyl-9,10-dihydrolysergate]
5HT2 receptors [1]
  Kb: 0.112 nM
α2 receptors
  Kb: 155 nM
α1 receptors
  Kb: 4470 nM
5HT2 receptors [2]; 0.3 mg/kg po
  curve shift: 6.7
  dose of 5HT required to increase mean arterial BP by 50 mmHg: 1800
5HT2 receptors [2]; one hour after oral 0.1 mg/kg
  Curve Shift Relative to trans: 11.6
5HT2 receptors [2]; six hours after oral 0.1 mg/kg
  Curve Shift Relative to trans: 24.3

## CC(C)n1cc2c3c(cccc31)[C@H]1C[C@@H](C(=O)OC3CCC(O)CC3)CN(C)[C@@H]1C2 (mixture of isomers) [mixture, 4-hydroxycyclohexyl 1-isopropyl-9,10-dihydrolysergate]
5HT1 receptors
  IC50: 530 nM
Histamine
  Kb: > 10000 nM
5HT2 receptors [1]
  Kb: 0.0661 nM
Muscarinic
  Kb: > 10000 nM
α2 receptors
  Kb: 117 nM
[3]
  effect on blood pressure or heart rate: no effect on blood pressure or heart rate
α1 receptors
  Kb: 14500 nM
alpha2 receptors; 100 mg/kg dose level po
  alpha2 antagonist activity in pithed rats: slight
alpha2 receptors; pithed rats, po
  specificity (5HT2 vs alpha2) in vivo compared with in vitro: greater specificity
5HT2 receptors [2]; one hour after oral 0.1 mg/kg
  Curve Shift Relative to trans: 3.6
5HT2 receptors [2]; six hours after oral 0.1 mg/kg
  Curve Shift Relative to trans: 5.5
5HT2 receptors [4]
  IC50: 3 nM

## CN1CCC(=C2c3ccccc3CCc3sccc32)CC1 [BC105]
Migraine [5]
  Improvement rate in migraine: 50%

## CC(O)C(C)OC(=O)[C@@H]1C[C@@H]2c3cccc4c3c(cn4C(C)C)C[C@H]2N(C)C1 (stereo partly drawn) [LY53857, 1-isopropyl-6-methyl-8β-(1-methyl-2-hydroxy)propoxycarbonyl-5R-ergoline]
[6]
  effect on receptors other than 5HT2: lack of effect
[7]
  affinity, vascular alpha adrenergic receptors: minimal affinity
[8]
  affinity, vascular dopaminergic receptors: minimal affinity
[9]
  affinity, vascular histaminergic receptors: minimal affinity
5HT2 receptors [10]
  antagonism of vascular contraction to serotonin: potent antagonist

## CN1CCC(=C2c3ccccc3C=Cc3ccccc32)CC1 [cyproheptadine]
Migraine [5]
  Improvement rate in migraine: 43%

## CN1CCC(=C2c3ccccc3C(O)c3ccccc32)CC1 (stereo not shown) [danitracene]
Migraine [11]
  pharmacological effects: antiserotonin, antihistamine and antidepressive affects

## C[C@@H](CO)NC(=O)[C@@H]1C=C2c3cccc4[nH]cc(c34)C[C@H]2N(C)C1 [ergonovine]
dopaminergic
  dopaminergic activity in words: weak dopaminergic antagonist
5HT receptor
  5HT receptor activity (agonist/antagonist) in words: 5HT agonist and selective and fairly potent 5HT antagonist in smooth muscle and highly active 5HT antagonist in the uterus

## CN1C[C@H](C(=O)N[C@]2(C)O[C@@]3(O)[C@@H]4CCCN4C(=O)[C@H](Cc4ccccc4)N3C2=O)C=C2c3cccc4[nH]cc(c34)C[C@H]21 [ergotamine]
[12]
  pressor and emetic activity: most active compound only in pressor and emetic activity
5HT receptor
  5HT receptor activity (agonist/antagonist) in words: 5HT agonists at low concentrations but antagonistic at higher concentrations
Cranial arteries
  constriction of cranial arteries: act together to constrict cranial arteries
alpha-receptors
  alpha receptor activity in words: both a partial alpha-agonist and an alpha-antagonist

## CCN(CC)C(=O)N[C@H]1C=C2c3cccc4[nH]cc(c34)C[C@H]2N(C)C1 [lysenyl, N-D-6-methylisoergolenyldiethylcarbamide]
Migraine [5]
  Improvement rate in migraine: 34%

## CN1CCC(CN2c3ccccc3Sc3ccccc32)C1 (stereo not shown) [methdilazine]
Migraine [5]
  Improvement rate in migraine: 45%

## CC[C@@H](CO)NC(=O)[C@@H]1C=C2c3cccc4c3c(cn4C)C[C@H]2N(C)C1 [methysergide]
5HT2
  5HT2 agonist activity and side effects: responsible for some of the side effects
5HT receptor; Berde, most active compound = 1,000
  5HT receptor blockade rating: 1,000
5HT receptor
  5HT receptor activity (agonist/antagonist) in words: 5HT agonists at low concentrations but antagonistic at higher concentrations and partial 5HT agonist in certain blood vessels and very potent 5HT antagonist in the CNS
[13]
  oxytocic action: no oxytocic action
alpha-receptors
  alpha receptor activity in words: little or no action on alpha-receptors
Migraine [5]
  Improvement rate in migraine: 64%

## CC(C)n1cc2c3c(cccc31)[C@H]1C[C@@H](C(=O)O[C@H]3CC[C@H](O)CC3)CN(C)[C@@H]1C2 [trans, trans-4-hydroxycyclohexyl 1-isopropyl-9,10-dihydrolysergate]
5HT1 receptors
  IC50: 390 nM
Histamine
  Kb: > 10000 nM
5HT2 receptors [1]
  Kb: 0.0955 nM
Muscarinic
  Kb: > 10000 nM
α2 receptors
  Kb: 66.1 nM
α1 receptors
  Kb: 1950 nM
5HT2 receptors [2]; by extrapolation, po
  potency of trans isomer relative to cis isomer: 3 X
5HT2 receptors [4]
  IC50: 0.7 nM
